Assay results published in patent publication US20070197485A1, “Therapy and Use of Compounds in Therapy” (MAX-DELBRUECK-CENTRUM FUR MOLEKULARE MEDIZIN, priority 1999, published 2007).

Experiments:
[1] = test system: whole blood TNF production; assay: Whole blood TNF production after therapeutic application of UDCA; assay type: in vivo, human; conditions: patient 4; after 2 days of UDCA treatment, 3 times 250 mg daily
Method: (§1) We have tested the ability of the therapeutic application of ursodeoxycholic acid (UDCA, FALK Pharma GmbH) to lower plasma levels of TNF and IL6 and to lower spontaneous and LPS-stimulated whole blood cytokine production in patients with cachexia.
(§2) We studied in 2 patients with cachexia due to liver cirrhosis plasma cytokine levels after treatment with 3 times 250 mg daily UDCA (FALK Pharma GmbH). The patients had weight loss >7.5% compared to their previous normal weight. The patients were studied at baseline prior to the treatment on 2 subsequent days (day ”−1” and day “0”), and then they were restudied on day 1 (“1”), day 2 (“2”), and day 5 (“5”), see FIGS. 9 and 12.
(§3) Methods: Heparinized whole blood was diluted 1:10 with medium ±LPS (50 pg/ml), ±BPI (1 ug/ml), and ±UDCA (1 ug/ml-1 mg/ml) according to the manufacturer's recommendation (Milenia whole blood assay; DPC Biermann, Bad Nauheim, Germany) and incubated for 4 hours at 37° C. In the supernatant and in plasma, we assessed concentrations of TNF and IL-6 using the semiautomated Immulite system (DPC-Biermann, Bad Nauheim, Germany).

[2] = test system: IL6 production in whole blood of patients with cachexia; assay: Milenia whole blood assay, IL6 production (in vitro addition of UDCA / BPi); assay type: cell-based, human
Text: (§4) We have tested the ability of ursodeoxycholic acid (UDCA, FALK Pharma GmbH) and BPi to inhibit LPS-mediated TNF production in whole blood of patients with cachexia. We studied 4 patients with cachexia due to liver cirrhosis. The patients had all weight loss >7.5% compared to their previous normal weight. […] All patients were studied twice on 2 subsequent days (day “−1” and day “0”), see FIG. 9 to 12.
[…] In the supernatant, we assessed concentrations of TNF and IL-6 using the semiautomated Immulite system (DPC-Biermann, Bad Nauheim, Germany).

[3] = test system: TNF production in whole blood of patients with cachexia; assay: Milenia whole blood assay, TNF production (in vitro addition of UDCA / BPi); assay type: cell-based, human
Method: as §4
as §3, with “μg/ml), ±BPi” for “pg/ml), ±BPI”, “μg/ml),” for “ug/ml),”, “μg/ml-1” for “ug/ml-1”, “supernatant,” for “supernatant and in plasma,”

[4] = test system: whole blood IL6 production; assay: Whole blood IL6 production after therapeutic application of UDCA; assay type: in vivo, human; conditions: patient 4; after 2 days of UDCA treatment, 3 times 250 mg daily
Method: as §1, §2, §3

[5] = test system: monocyte generated cytokine production in response to LPS; conditions: in vitro, in the concentrations used; cited from earlier work
[6] = test system: LPS-induced TNF-α release; assay: LPS-induced TNF-α release with lipoproteins / LBP (FIG. 4 to 7); assay type: cell-based; conditions: addition of LBP to a lipoprotein containing serum (FIG. 7)
[7] = 100 ug/ml UDCA, whole blood of patients with cachexia due to liver cirrhosis, 4 hours at 37° C
[8] = 1 mg/ml UDCA, whole blood of patients with cachexia due to liver cirrhosis diluted 1:10, 4 hours at 37° C, on average
[9] = BPi 1 ug/ml, in 6 of 8 experiments, or towards non-detectability, 2 cases stable, p<0.05
[10] = BPi 1 ug/ml, whole blood of patients with cachexia due to liver cirrhosis, no LPS

C[C@H](CCC(=O)O)[C@H]1CC[C@H]2[C@@H]3[C@@H](O)C[C@@H]4C[C@H](O)CC[C@]4(C)[C@H]3CC[C@]12C [UDCA, ursodeoxycholic acid]
LPS-stimulated TNF production lowered [1]: 43.5% | reduction of LPS-stimulated IL6 production [2, 7]: 13% | reduction of LPS-stimulated IL6 production [2, 8]: 97% | reduction of LPS-stimulated TNF production [3, 7]: 42% | reduction of LPS-stimulated TNF production [3, 8]: > 99% | LPS-stimulated IL6 production lowered [4]: 39.6%

C[C@H](CCC(=O)O)[C@H]1CC[C@H]2[C@@H]3[C@H](O)C[C@@H]4C[C@H](O)CC[C@]4(C)[C@H]3CC[C@]12C [chenodeoxycholic acid]
effect on monocyte generated cytokine production in response to LPS [5]: less effective

B1: LBP: LPS binding protein (protein, UniProt P18428 26-481, looked up)
Lipopolysaccharide-binding …: ANPGLVARITDKGLQYAAQEGLLALQSELLRITLPDFTGDLRIPHVGRGRYEFHSLNIHSCELLHSALRPVPGQGLSLSISDSSIRVQGRWKVRKSFFKLQGSFDVSVKGISISVNLLLGSESSGRPTVTASSCSSDIADVEVDMSGDLGWLLNLFHNQIESKFQKVLESRICEMIQKSVSSDLQPYLQTLPVTTEIDSFADIDYSLVEAPRATAQMLEVMFKGEIFHRNHRSPVTLLAAVMSLPEEHNKMVYFAISDYVFNTASLVYHEEGYLNFSITDDMIPPDSNIRLTTKSFRPFVPRLARLYPNMNLELQGSVPSAPLLNFSPGNLSVDPYMEIDAFVLLPSSSKEPVFRLSVATNVSATLTFNTSKITGFLKPGKVKVELKESKVGLFNAELLEALLNYYILNTFYPKFNDKLAEGFPLPLLKRVQLYDLGLQIHKDFLFLGANVQYMRV
LPS-mediated TNF-α production [6]: reduced

B2: BPi: BPi, agent tested to inhibit LPS-mediated TNF production in whole blood; not spelled out in the text (protein, UniProt P17213 32-487, looked up)
Bactericidal …: VNPGVVVRISQKGLDYASQQGTAALQKELKRIKIPDYSDSFKIKHLGKGHYSFYSMDIREFQLPSSQISMVPNVGLKFSISNANIKISGKWKAQKRFLKMSGNFDLSIEGMSISADLKLGSNPTSGKPTITCSSCSSHINSVHVHISKSKVGWLIQLFHKKIESALRNKMNSQVCEKVTNSVSSELQPYFQTLPVMTKIDSVAGINYGLVAPPATTAETLDVQMKGEFYSENHHNPPPFAPPVMEFPAAHDRMVYLGLSDYFFNTAGLVYQEAGVLKMTLRDDMIPKESKFRLTTKFFGTFLPEVAKKFPNMKIQIHVSASTPPHLSVQPTGLTFYPAVDVQAFAVLPNSSLASLFLIGMHTTGSMEVSAESNRLVGELKLDRLLLELKHSNIGPFPVELLQDIMNYIVPILVLPRVNEKLQKGFPLPTPARVQLYNVVLQPHQNFLLFGADVVYK
lowering of spontaneous IL6 levels [2, 9]: at least 5 pg/mi | spontaneous production of IL6 [2, 10]: reduced significantly | lowering of spontaneous TNF levels [3, 9]: at least 5 pg/mi | spontaneous production of TNF [3, 10]: reduced significantly
